Measurements taken from publication PMC7495458, “Generating Ampicillin-Level Antimicrobial Peptides with Activity-Aware Generative Adversarial Networks” (ACS Omega, 2020).
Values after ≈ are worked out from the molar mass of the structure shown. Read-outs that look alike come from different tables or passages of the source. No end group written: not given here.

System: E. coli TOP10
Test: microbe, parasite or virus in culture
Assay type: cell-based
Description: The potency of the peptides is evaluated based on MIC against E. coli. MIC is determined as the minimum concentration of an antimicrobial at which the growth of a target microbe is suppressed. […] The high production ratio, 5/6, and the sufficiently low MIC of AMP4 validate PepGAN’s ability to generate industry-level peptides.
The MICs of the peptides were determined using the microdilution test with some modifications. We used E. coli TOP10 (Thermo Scientific, MA, USA) in the late-log phase for this test. The colony forming unit (cfu) of E. coli was determined using optical density at 600 nm. For each peptide, we prepared 11 wells containing 150 μL of 5 × 10^5 cfu/mL of E. coli and the series of concentration of each peptide from 10 to 0.01 μg/mL (2-fold dilution for 10 times). We also prepared one well containing only 150 μL of 5 × 10^5 cfu/mL of E. coli without the peptide. Similarly, we prepared 11 wells for ampicillin in the same well-plate. We incubate the plates for 26 h at 37 °C for the growth of E. coli. To read the optical density for each well, we set the plates in a plate reader (EnSpire 2300, PerkinElmer). After shaking the plate for 10 s at 300 rpm in double-orbital motion (diameter 1 mm), we measured the optical density of each solution (600 nm).

| Compound | MIC (TOP10, 26 h) | MIC (Escherichia coli, microdilution test, E. coli TOP10 late-log phase, 5 × 10^5 cfu/mL, 150 μL, 2-fold dilutions, 26 h at 37 °C, optical density 600 nm, read-out: MIC) |
| --- | --- | --- |
| IKALLALPKLAKKIAKKFLK-NH2 [AMP2] | 50 µg/mL | – |
| EIEYGNPGVGTDR-NH2 [AMP9NC] | >100 µg/mL | – |
| FLGPIIKTVRAVLCAIKKL-NH2 [AMP6] | 25 µg/mL | – |
| LFTMADPIQSIEKEI-NH2 [AMP7NC] | >100 µg/mL | – |
| CC1(C)S[C@@H]2[C@H](NC(=O)[C@H](N)c3ccccc3)C(=O)N2[C@H]1C(=O)O [ampicillin] | – | 6.25 µg/mL (≈ 17.9 µM) |
| FLPAFKNVISKILKALKKKV-NH2 [AMP5] | 12.5 µg/mL | – |
| TLPEWDDRRVVNS-NH2 [AMP10NC] | >100 µg/mL | – |
| GLKKLFSKIKIIGSALKNLA-NH2 [AMP4] | 3.1 µg/mL | – |
| ILPLLKKFGKKFGKKVWKAL-NH2 [AMP1] | 25 µg/mL | – |
| GLRSSVKTLLRGLLGIIKKF-NH2 [AMP3] | >100 µg/mL | – |
| KRFLPSCVRSIQNLDDALPTPEEF-NH2 [AMP8NC] | >100 µg/mL | – |
